According to ChEMBL document CHEMBL1201862, “PubChem BioAssay data set” (2004):
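These data come from cells grown in 96-well plates and exposed to compound for 48 hours at five concentrations. The concentration for 50% growth inhibition is given as GI50.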 Active and inactive are the calls of the source. Rule as the data show it: active = GI50 up to about 1.1 µM and inactive = higher.

What was measured:
Experiment in all cases: DTP human tumour cell line panel, 48 h
SW-620 = tested on: SW-620
OVCAR-8 = tested on: OVCAR-8
HOP-62 = tested on: HOP-62
U-251 = tested on: U-251
EKVX = tested on: EKVX
ACHN = tested on: ACHN
CCRF-CEM = tested on: CCRF-CEM
NCI-H23 = tested on: NCI-H23
RXF 393 = tested on: RXF 393
NCI-H460 = tested on: NCI-H460
HT-29 = tested on: HT-29
UACC-257 = tested on: UACC-257
LOX IMVI = tested on: LOX IMVI
SNB-19 = tested on: SNB-19
TK-10 = tested on: TK-10
MOLT-4 = tested on: MOLT-4
UO-31 = tested on: UO-31
A498 = tested on: A498

Measured: GI50

OC(c1cc2ccccc2[nH]1)C(O)(c1cc2ccccc2[nH]1)c1cc2ccccc2[nH]1 (stereo not given)
inactive: SW-620 10.1 µM | OVCAR-8 15.9 µM | HOP-62 15.4 µM | U-251 25.8 µM | EKVX 12.3 µM | ACHN 18.6 µM | CCRF-CEM 12.3 µM | NCI-H23 5.83 µM | RXF 393 7.18 µM | NCI-H460 14.4 µM | HT-29 9.18 µM | UACC-257 16.3 µM | LOX IMVI 10.8 µM | SNB-19 27.2 µM | TK-10 40.1 µM | MOLT-4 8.07 µM

O=C1c2cccc3c(Cl)ccc(c23)C(=O)N1CCCN1CCN(CCCN2C(=O)c3cccc4c(Cl)ccc(c34)C2=O)CC1
inactive: SW-620 > 100 µM | OVCAR-8 50.9 µM | HOP-62 > 100 µM | UO-31 > 100 µM | U-251 55.7 µM | EKVX > 100 µM | ACHN 81.8 µM | CCRF-CEM > 100 µM | NCI-H23 97.1 µM | NCI-H460 > 100 µM | HT-29 > 100 µM | UACC-257 > 100 µM | LOX IMVI > 100 µM | SNB-19 > 100 µM | TK-10 > 100 µM | MOLT-4 57.3 µM | A498 > 100 µM

C=C1C(=O)O[C@@H]2[C@H]1CCC(C)=C1C=CC(=O)[C@]12C
inactive: SW-620 6.21 µM | OVCAR-8 17.3 µM | UO-31 14.9 µM | U-251 22.4 µM | EKVX 17 µM | ACHN 16.1 µM | CCRF-CEM 3.15 µM | NCI-H23 > 10 µM | RXF 393 14.4 µM | NCI-H460 19.4 µM | HT-29 10.9 µM | UACC-257 12.4 µM | SNB-19 23.7 µM | TK-10 23 µM | MOLT-4 10.9 µM

O=C1OC2(c3ccccc3Oc3ccccc32)c2ccccc21
inactive: SW-620 > 100 µM | OVCAR-8 > 100 µM | HOP-62 > 100 µM | UO-31 > 100 µM | U-251 > 100 µM | EKVX > 100 µM | ACHN > 100 µM | CCRF-CEM > 100 µM | NCI-H23 > 100 µM | NCI-H460 > 100 µM | HT-29 > 100 µM | UACC-257 99.5 µM | LOX IMVI > 100 µM | SNB-19 > 100 µM | TK-10 > 100 µM | MOLT-4 > 100 µM | A498 > 100 µM

N=C(N)SCc1cn2ccccc2n1
inactive: SW-620 > 100 µM | OVCAR-8 > 100 µM | HOP-62 > 100 µM | UO-31 > 100 µM | U-251 > 100 µM | EKVX > 100 µM | ACHN > 100 µM | CCRF-CEM > 100 µM | NCI-H23 > 100 µM | NCI-H460 > 100 µM | HT-29 > 100 µM | UACC-257 > 100 µM | LOX IMVI > 100 µM | SNB-19 > 100 µM | TK-10 > 100 µM | MOLT-4 > 100 µM

Cc1ccc(SCC(=O)C2=C(O)CCCC2=O)cc1
inactive: SW-620 > 100 µM | OVCAR-8 > 100 µM | HOP-62 > 100 µM | UO-31 > 100 µM | U-251 > 100 µM | EKVX > 100 µM | ACHN > 100 µM | CCRF-CEM 40.6 µM | NCI-H23 > 100 µM | RXF 393 > 100 µM | NCI-H460 > 100 µM | HT-29 > 100 µM | UACC-257 > 100 µM | LOX IMVI > 100 µM | SNB-19 > 100 µM | TK-10 > 100 µM | MOLT-4 > 100 µM

CCOc1ccccc1N1C(=O)C(=O)C(c2nc3ccccc3o2)/C(=N\N)C1=O (stereo not given)
inactive: SW-620 > 100 µM | OVCAR-8 > 100 µM | HOP-62 > 100 µM | UO-31 31.2 µM | U-251 > 100 µM | EKVX > 100 µM | ACHN 88.1 µM | CCRF-CEM > 100 µM | NCI-H23 > 100 µM | RXF 393 > 100 µM | HT-29 70.5 µM | UACC-257 49.9 µM | LOX IMVI > 100 µM | SNB-19 > 100 µM | TK-10 56.5 µM | A498 > 100 µM

O=C(CCn1[nH]c(=O)c(Cl)c(Cl)c1=O)NOCCCc1ccccc1
inactive: SW-620 > 100 µM | OVCAR-8 > 100 µM | HOP-62 > 100 µM | UO-31 > 100 µM | EKVX > 100 µM | ACHN > 100 µM | CCRF-CEM > 100 µM | NCI-H23 > 100 µM | NCI-H460 > 100 µM | HT-29 > 100 µM | UACC-257 > 100 µM | LOX IMVI > 100 µM | SNB-19 > 100 µM | TK-10 > 100 µM | MOLT-4 > 100 µM | A498 > 100 µM

CC(=O)O[C@H]1CSC[C@@H](OC(C)=O)C1[N+](=O)[O-] (stereo not given in full)
inactive: SW-620 27 µM | OVCAR-8 45.5 µM | HOP-62 > 100 µM | U-251 > 100 µM | EKVX > 100 µM | ACHN 93.5 µM | CCRF-CEM 19.5 µM | NCI-H23 > 100 µM | RXF 393 20.1 µM | NCI-H460 > 100 µM | HT-29 48.2 µM | UACC-257 20.6 µM | SNB-19 > 100 µM | TK-10 > 100 µM | MOLT-4 27.8 µM | A498 > 100 µM

CCOP1(=O)C=C(C)C(Cl)=C(C)C1 (stereo not given)
inactive: SW-620 21.1 µM | OVCAR-8 30 µM | HOP-62 > 100 µM | UO-31 35.3 µM | U-251 24.3 µM | EKVX > 100 µM | ACHN 24.6 µM | CCRF-CEM 17.6 µM | NCI-H23 22.9 µM | RXF 393 29.7 µM | NCI-H460 39.2 µM | HT-29 24.5 µM | UACC-257 23.1 µM | LOX IMVI 20.4 µM | SNB-19 > 100 µM | TK-10 41.4 µM | MOLT-4 20.4 µM

CN(/N=C/c1cccc2cccnc12)c1c([N+](=O)[O-])cc([N+](=O)[O-])cc1[N+](=O)[O-]
inactive: SW-620 > 100 µM | OVCAR-8 > 100 µM | HOP-62 > 100 µM | U-251 > 100 µM | EKVX > 100 µM | ACHN > 100 µM | NCI-H23 > 100 µM | RXF 393 > 100 µM | NCI-H460 > 100 µM | HT-29 69.2 µM | UACC-257 > 100 µM | LOX IMVI 45.3 µM | SNB-19 > 100 µM | TK-10 > 100 µM | MOLT-4 11.4 µM | A498 25.5 µM

CC1C2CC=CC(=O)[C@@]2(C)CCC12OCCO2 (stereo not given in full)
inactive: SW-620 > 100 µM | OVCAR-8 > 100 µM | HOP-62 > 100 µM | UO-31 > 100 µM | U-251 > 100 µM | EKVX > 100 µM | ACHN > 100 µM | CCRF-CEM > 100 µM | NCI-H23 > 100 µM | RXF 393 > 100 µM | NCI-H460 > 100 µM | HT-29 > 100 µM | UACC-257 > 100 µM | SNB-19 > 100 µM | TK-10 > 100 µM | MOLT-4 > 100 µM | A498 > 100 µM

CCC(=O)N1C(=S)SC[C@H]1C(=O)OC
inactive: SW-620 > 100 µM | OVCAR-8 > 100 µM | HOP-62 > 100 µM | UO-31 > 100 µM | U-251 > 100 µM | EKVX > 100 µM | ACHN > 100 µM | CCRF-CEM 69.2 µM | NCI-H23 > 100 µM | RXF 393 > 100 µM | HT-29 > 100 µM | UACC-257 > 100 µM | LOX IMVI > 100 µM | SNB-19 > 100 µM | TK-10 > 100 µM | MOLT-4 > 100 µM | A498 > 100 µM

COc1ccc2cc1Oc1ccc(cc1)CC1c3cc(c(OC)cc3CCN1C)Oc1c3c(cc4c1C(C2)N(C)CC4)OCO3 (stereo not given)
inactive: SW-620 13.1 µM | OVCAR-8 8.36 µM | HOP-62 15.5 µM | U-251 5.14 µM | EKVX 14.9 µM | ACHN 4.58 µM | CCRF-CEM 13.2 µM | NCI-H23 17 µM | RXF 393 1.83 µM | NCI-H460 14.2 µM | HT-29 2.46 µM | LOX IMVI 1.85 µM | SNB-19 17.6 µM | TK-10 2.19 µM | MOLT-4 5.52 µM

O=C1/C(=C/c2ccc(Br)cc2)CCC/C1=C\c1ccc(Br)cc1
inactive: SW-620 5.13 µM | OVCAR-8 3.95 µM | HOP-62 20 µM | UO-31 12.3 µM | U-251 7.05 µM | EKVX 24.2 µM | ACHN 12.2 µM | CCRF-CEM 5.11 µM | NCI-H23 5.69 µM | RXF 393 5.14 µM | NCI-H460 10.5 µM | HT-29 1.88 µM | UACC-257 4.2 µM | SNB-19 18.9 µM | TK-10 27.5 µM | MOLT-4 7.11 µM | A498 5.32 µM

COC(=O)C1C(=O)CC2CCCCC21 (stereo not given)
inactive: SW-620 > 100 µM | HOP-62 > 100 µM | UO-31 > 100 µM | U-251 > 100 µM | ACHN > 100 µM | CCRF-CEM > 100 µM | RXF 393 > 100 µM | NCI-H460 > 100 µM | UACC-257 > 100 µM | SNB-19 > 100 µM | TK-10 > 100 µM | MOLT-4 > 100 µM | A498 > 100 µM

CC1(C=O)C(=O)CCC2(C)C3CC(=O)OC3CCC12 (stereo not given)
inactive: SW-620 > 100 µM | OVCAR-8 > 100 µM | HOP-62 > 100 µM | UO-31 > 100 µM | U-251 > 100 µM | EKVX > 100 µM | ACHN > 100 µM | CCRF-CEM > 100 µM | NCI-H23 > 100 µM | RXF 393 > 100 µM | NCI-H460 > 100 µM | HT-29 > 100 µM | UACC-257 > 100 µM | LOX IMVI > 100 µM | SNB-19 > 100 µM | TK-10 > 100 µM | MOLT-4 > 100 µM
